The source of these data is article PMC4744546 (Pharmaceutical research, 2015).

Series [1] deals with colon cancer cell lines. The conditions noted are these: ref [18]; cited from earlier work.
Series [2] is classed as in vivo, FVB wild-type mice.
A short description of series [3]: Pharmacokinetic study of oral resveratrol with or without curcumin in Bcrp1. It is filed as in vivo, Bcrp1 (−/−) mice (FVB background). The conditions noted are these: for Cmax / Tmax / half-life: FVB, mouse, whole blood, po, 20 mg/kg, oral resveratrol 20mg/kg; for Cmax: blood.
The conditions of series [4]: humans; ref [16]; cited from earlier work.
Series [5] in a line: Characterization of resveratrol metabolites in pooled human liver S9 fraction. It is filed as in vitro ADME.
The subject of series [6] is BCRP. The conditions noted are these: oral sulfasalazine, curcumin pretreatment vs none, ref [37]; cited from earlier work.
In series [7] the test system is human MRP2-overexpressing MDCK II-UGT1A1 cells. The series can be described thus: Effect of curcumin on fmet of resveratrol conjugates in MDCK II cells. Format: cell-based. The conditions noted are these: 4 h.
For series [8], the target named is human MRP2 (Homo sapiens, UniProt Q92887). The series is described as follows: Effect of curcumin on MRP2-mediated efflux. It is filed as cell-based. The following applies: MRP2-overexpressing MDCK II-UGT1A1 cells.
Series [9] has as its target T1, BCRP (Homo sapiens, UniProt Q9UNQ0).
T1 sequence (Q9UNQ0 1-655): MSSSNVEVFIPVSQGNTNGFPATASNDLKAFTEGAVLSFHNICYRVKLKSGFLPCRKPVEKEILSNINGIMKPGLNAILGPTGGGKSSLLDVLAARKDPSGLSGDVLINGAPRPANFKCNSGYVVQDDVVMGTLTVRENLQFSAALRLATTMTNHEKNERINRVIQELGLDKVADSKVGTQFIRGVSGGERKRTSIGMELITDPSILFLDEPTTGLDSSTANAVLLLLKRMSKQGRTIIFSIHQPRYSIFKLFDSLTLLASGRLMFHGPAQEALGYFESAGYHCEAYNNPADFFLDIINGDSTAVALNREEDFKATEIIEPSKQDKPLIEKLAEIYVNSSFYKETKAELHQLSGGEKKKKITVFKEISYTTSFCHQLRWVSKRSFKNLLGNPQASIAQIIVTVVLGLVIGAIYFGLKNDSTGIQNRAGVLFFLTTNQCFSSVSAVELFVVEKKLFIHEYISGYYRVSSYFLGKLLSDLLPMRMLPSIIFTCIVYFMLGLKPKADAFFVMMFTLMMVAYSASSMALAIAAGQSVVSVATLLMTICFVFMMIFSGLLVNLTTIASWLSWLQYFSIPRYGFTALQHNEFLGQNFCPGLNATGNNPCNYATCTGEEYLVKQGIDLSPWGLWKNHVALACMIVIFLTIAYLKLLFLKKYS
The series is described as follows: Effect of curcumin on BCRP-mediated efflux. Format: cell-based. The following applies: UGT1A9-overexpressing HeLa cells.

Setting [10] is: FVB, mouse, whole blood, po, 20 mg/kg.
The mark [11] stands for this setting: WT mice with curcumin vs without, resveratrol 20mg/kg oral.
[12] abbreviates: curcumin 50nM, resveratrol […], 4 h, p<0.01.
The mark [13] stands for this setting: curcumin 50nM, resveratrol […], 4 h, p<0.05.

Structures are written as SMILES. Where two headings read alike, the source gives them in different places.

Sequence of human MRP2 (Q92887 whole entry): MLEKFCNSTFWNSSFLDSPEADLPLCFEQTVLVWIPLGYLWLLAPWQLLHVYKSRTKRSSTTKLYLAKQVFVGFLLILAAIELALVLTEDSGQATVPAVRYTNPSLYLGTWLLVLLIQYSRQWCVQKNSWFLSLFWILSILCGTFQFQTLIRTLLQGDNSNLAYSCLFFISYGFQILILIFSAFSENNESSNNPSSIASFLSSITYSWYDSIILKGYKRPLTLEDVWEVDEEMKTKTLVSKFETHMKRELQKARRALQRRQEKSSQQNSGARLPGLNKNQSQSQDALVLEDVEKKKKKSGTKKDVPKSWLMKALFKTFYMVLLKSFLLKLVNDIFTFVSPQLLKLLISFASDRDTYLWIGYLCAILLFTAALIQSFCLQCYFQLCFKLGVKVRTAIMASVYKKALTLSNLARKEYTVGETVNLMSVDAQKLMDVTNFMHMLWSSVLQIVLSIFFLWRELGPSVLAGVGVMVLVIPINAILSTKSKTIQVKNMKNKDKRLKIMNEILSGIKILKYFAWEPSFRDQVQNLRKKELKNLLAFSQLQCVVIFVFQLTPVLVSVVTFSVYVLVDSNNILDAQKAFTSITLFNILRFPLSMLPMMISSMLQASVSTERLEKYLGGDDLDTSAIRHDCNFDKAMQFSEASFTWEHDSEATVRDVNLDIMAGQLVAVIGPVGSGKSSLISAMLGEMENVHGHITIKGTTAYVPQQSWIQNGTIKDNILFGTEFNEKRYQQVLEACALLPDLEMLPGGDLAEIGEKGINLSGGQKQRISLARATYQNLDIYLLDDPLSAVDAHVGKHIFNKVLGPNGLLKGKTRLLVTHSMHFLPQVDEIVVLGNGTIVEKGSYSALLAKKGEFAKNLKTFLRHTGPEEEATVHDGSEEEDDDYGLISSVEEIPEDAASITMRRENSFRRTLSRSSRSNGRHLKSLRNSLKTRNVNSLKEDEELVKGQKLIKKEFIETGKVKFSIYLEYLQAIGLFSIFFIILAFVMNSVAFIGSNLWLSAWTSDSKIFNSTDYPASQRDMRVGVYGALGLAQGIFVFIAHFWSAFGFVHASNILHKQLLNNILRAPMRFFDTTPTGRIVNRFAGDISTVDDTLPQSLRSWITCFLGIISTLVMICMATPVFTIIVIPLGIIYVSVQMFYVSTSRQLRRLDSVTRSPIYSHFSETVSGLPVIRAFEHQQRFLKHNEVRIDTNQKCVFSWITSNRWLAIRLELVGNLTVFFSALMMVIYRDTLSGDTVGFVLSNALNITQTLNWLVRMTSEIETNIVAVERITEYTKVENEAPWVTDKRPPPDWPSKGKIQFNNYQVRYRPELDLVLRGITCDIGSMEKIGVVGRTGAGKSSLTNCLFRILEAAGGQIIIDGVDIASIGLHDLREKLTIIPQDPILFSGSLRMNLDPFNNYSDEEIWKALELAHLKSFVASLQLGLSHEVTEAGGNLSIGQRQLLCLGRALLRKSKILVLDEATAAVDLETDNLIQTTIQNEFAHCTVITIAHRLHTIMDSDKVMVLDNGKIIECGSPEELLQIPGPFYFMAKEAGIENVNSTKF

With `O=C(O)[C@H]1O[C@@H](Oc2cc(O)cc(/C=C/c3ccc(O)cc3)c2)[C@H](O)[C@@H](O)[C@@H]1O` [R-3-G, resveratrol-3-O-glucuronide], the “IC50 of cell growth inhibition compared to parent compound” value in series [1] is “comparable”.
`O=S(=O)(O)Oc1cc(O)cc(C=Cc2ccc(O)cc2)c1` [R-3-S, resveratrol-3-O-sulfate]: the peak concentration (Cmax) in [2] (setting [10]) was determined as 1320 ± 710 nM; in [3] (Bcrp1 (−/−) with curcumin), 1800 ± 170 nM; in series [3] (Bcrp1 (−/−) without curcumin) it was 2400 ± 980 nM. Moreover, the time of peak concentration (Tmax) in [2] (FVB, mouse, whole blood, po, 20 mg/kg, Tmax, WT with curcumin, oral resveratrol 20mg/kg) was 0.31 ± 0.12 h; in series [3] (Bcrp1 (−/−) with curcumin), 0.25 h; in series [3] (Bcrp1 (−/−) without curcumin), 0.25 h. Besides, the half-life is 3.77 ± 1.74 h in series [2] (FVB, mouse, whole blood, po, 20 mg/kg, t1/2, WT control, oral resveratrol 20mg/kg without curcumin); 9.32 ± 5.64 h in [2] (FVB, mouse, whole blood, po, 20 mg/kg, t1/2, WT with curcumin, oral resveratrol 20mg/kg); 5.82 ± 2.55 h in series [3] (t1/2, Bcrp1 (−/−) with curcumin); 4.41 ± 0.44 h in [3] (t1/2, Bcrp1 (−/−) without curcumin). Further, the “peak plasma levels relative to that of resveratrol” value in series [4] is listed as 3- to 8 fold.
Turning to `O=C(O)[C@H]1O[C@@H](Oc2ccc(/C=C/c3cc(O)cc(O)c3)cc2)[C@H](O)[C@@H](O)[C@@H]1O` [RES-4′-O-G, resveratrol-4′-O-glucuronide], the “amount of metabolite generated relative to the 3-O conjugate” value in series [5] is recorded as “about one fifth”. Moreover, in series [1], the “IC50 of cell growth inhibition compared to parent compound” value was “comparable”. For the same molecule, in series [4], the “peak plasma levels relative to that of resveratrol” value was 3- to 8 fold.
On to `Oc1ccc(/C=C/c2cc(O)cc(O)c2)cc1` [Resveratrol, trans-3,5,4′-trihydroxystilbene], for which, in series [2] (setting [10]), the Cmax was determined as 600 ± 260 nM. Besides, in series [2] (setting [11]), the “increase of AUC with curcumin” value worked out at 2 fold and the “increase of maximum blood concentration (Cmax) with curcumin” value is approximately 100%. In series [3] (Bcrp1 (−/−) with curcumin), this molecule yielded a peak concentration (Cmax) of 390 ± 170 nM. In addition, in series [3] (Bcrp1 (−/−) without curcumin), the highest level (Cmax) was 790 ± 440 nM and the Tmax was determined as 0.31 ± 0.12 h. For the same molecule, in series [3] (curcumin-treated vs curcumin-untreated Bcrp1 (−/−) mice), the “change in AUC with curcumin” value is listed as “decreased moderately”.
Take `O=C(O)c1cc(/N=N/c2ccc(S(=O)(=O)Nc3ccccn3)cc2)ccc1O` [SASP, sulfasalazine]: in series [6], the “plasma level in mice pretreated with curcumin” value is “two folds higher”.
With `COc1cc(/C=C/C(=O)CC(=O)/C=C/c2ccc(O)c(OC)c2)ccc1O` [curcumin, diferuoyl methane], the “decrease in fmet of RES-4′-O-G” value is given as approximately 20% in series [7] (curcumin 200nM, p<0.05); “approximately 24%” in series [7] (curcumin 500nM, p<0.01); “about 33%” in [7] (curcumin 1000nM, p<0.01). Besides, the “reduction in fmet of RES-3-O-G” value in series [7] (curcumin 200nM, p>0.05) is recorded as approximately 12%; in series [7] (curcumin 500nM, p<0.05), approximately 14%; in series [7] (curcumin 1000nM, p<0.05) it was “approximately 24%”. Besides, the “change in fmet values for all metabolites” value in [7] (lower concentrations of curcumin (100nM, 50nM)) is reported as “no significant change”. Also, the “reduction of CL of RES-3-O-G” value in [8] (curcumin 50nM, resveratrol […], 4 h, p<0.001) is 46%. Besides, the “reduction of CL of RES-4′-O-G” value in [8] (setting [12]) stood at 50%. Besides, in series [8] (setting [13]), the “reduction of CL of RES-3-O-S” value came to 53%. Besides, in series [8] (setting [13]), the “reduction of CL of RES-4′-O-S” value came to 54%. Moreover, the “inhibitory effect on CL at higher concentration” value in series [8] (curcumin 100nM vs 50nM) is “no greater concentration-dependent inhibitory effect”; in series [9] (curcumin 100nM vs 50nM), “no greater extent of inhibitory effect”. The “decrease of CL of RES-3-O-G” value in series [9] (setting [12]) was 28%. Also, in [9] (setting [13]), the “decrease of CL of RES-3-O-S” value is recorded as 35%. In addition, the “inhibitory effect on CL of RES-4′-G” value in series [9] (curcumin 100nM, 50nM, resveratrol […], 4 h) is “did not show any significant inhibitory effect”.
